Results as given in patent publication US9260481B2, “Peptide derivatives as antibiotics” (priority 2011, dated 2016).
Values after ≈ are worked out from the molar mass of the structure shown. Numbered stars: 1 amine (or outer) side, 2 acyl side, 3 side chain; on linkers, the order of the positions; unused ones are H or OH. Square brackets hold non-standard residues; d marks the D form. Peptide text beside a SMILES is read from it. * marks the point of attachment. ξ: configuration not given here. X1 = NCC(O)CCC(N[*:1])C(=O)[*:2]; ΔZArg = N=C(N)NCC/C=C(\N)C(=O)O; ξDab(3-OH) = NCC(O)C(N)C(=O)O; Orn = NCCC[CH](N)C(=O)O; NH(CH2)4NH2 = NCCCCN*

Legend:
[1] = system: Bacillus subtilis
[2] = system: Klebsiella pneumoniae; conditions: K. pneumoniae
[3] = system: Mannheimia haemolytica
[4] = system: Staphylococcus epidermidis
[5] = system: Stenotrophomonas maltophilia
[6] = system: Bacteroides fragilis; assay: microbe, parasite or virus in culture
Description: (§1) The minimal inhibitory concentrations (MIC) were determined according to the Clinical and Laboratory Standards Institute (CLSI) conditions guidelines detailed in Table 7. Assays were performed in triplicate.
(§2) Preparation of Inocula. Five to 10 well-isolated colonies were picked and resuspended in 3 ml sterile saline. The inoculum was re-suspended by vigorous shaking on a vortex mixer for 15 s. Turbidity was adjusted to McFarland standard 0.5 ([…]). The inoculum was further diluted in the appropriate media (Table 7) to give a final inoculum in each well of ˜2-8×10^5 CFU/ml.
(§3) Addition of Test Article. Stock solutions of Odilomycin A or comparator were diluted in the appropriate media to give a maximum starting concentration of 50 μg/mL in the assay. 50 μL of medium was dispensed into each well in columns two to 12 of a 96 well plate. 100 μL of the appropriate test compound solution (100 μg/mL) was dispensed into each well in column one. In the case of M. catarrhalis, M. haemolytica and P. multocida these values were doubled (a final assay volume of 200 μL was used). […] Columns 11 and 12 served as positive (no drug or test article, inoculum added), and negative (no drug, test article, or inoculum added) growth controls respectively.
(§4) Addition of Bacterial Strains. 50 μL of each inoculum suspension was added to the appropriate wells, resulting in a final volume of 100 μL consisting of 50 μL diluted compound or diluents, and 50 μL of inoculum or broth alone.

[7] = system: Staphylococcus aureus; assay: microbe, parasite or virus in culture; conditions: for Antibacterial activity (MIC): unit not given in table (MICs in μg/mL)
Description: as §1, §2, §3, §4

[8] = system: S. aureus ATCC 13709; type: cell-based, Staphylococcus aureus; conditions: ATCC 13709, 24 h
Description: (§5) Minimal bactericidal concentrations (MBCs) were established by extending the MIC procedure to the evaluation of bactericidal activity. After 24 hours, 10 μL were drawn from the wells, serially diluted and then spotted onto suitable agar plates. The plates were incubated at 37° C. overnight. […] All the experiments were done in triplicate.

[9] = system: P. aeruginosa ATCC 27853; type: cell-based, Pseudomonas aeruginosa; conditions: ATCC 27853, 24 h
Description: as §5

[10] = system: S. aureus ATCC 13709; assay: Bacterial killing curves (time-to-kill); type: cell-based, Staphylococcus aureus; conditions: growing S. aureus ATCC 13709, at four-fold the MIC
Description: (§6) Bacterial killing curves were carried out by inoculating S. aureus ATCC 13709 and P. aeruginosa ATCC 27853 with Odilomycin A concentration equal to four-fold the MIC. […] S. aureus and P. aeruginosa inoculi were prepared from colonies grown overnight in MHB. Antibiotics concentrations in the flask were adjusted in MHB according to the desired concentration. Culture tubes containing 10 mL were inoculated with S. aureus or P. aeruginosa at an approximate inoculum of 10^5 CFU/mL. Samples were drawn and bacteria were counted at 0, 1, 2, 3, 4, 6 and 24 h of incubation at 37° C. Thus, after vortexing the culture tubes, two 50 μL samples were removed and serially diluted with MHB. After each dilution step, 20 μL was plated onto LB agar plates, which were incubated for 24 h at 37° C. Afterwards the colonies were counted and back-extrapolated to the original volume to determine the initial concentration (CFU/mL).

[11] = system: P. aeruginosa ATCC 27853; assay: Bacterial killing curves (time-to-kill); type: cell-based, Pseudomonas aeruginosa; conditions: growing P. aeruginosa ATCC 27853, at four-fold the MIC
Description: as §6

[12] = system: S. aureus ATCC 25923; type: cell-based, Staphylococcus aureus; conditions: ATCC 25923
From the text: Vancomycin, rifampicin, kanamycin, gentamicin, ampicillin, ciprofloxacin and tetracycline (Sigma-Aldrich) were provided as standard powders by the manufacturers.

[13] = system: P. aeruginosa ATCC 27853; assay: Acute lethal infection in mice; type: in vivo, BALB/c mice; conditions: mice, P. aeruginosa 8.6 log10 CFU/mouse IP, n=6
Description: Female BALB/c mice ordered from Harlan Laboratories (Indianapolis, Ind.) weighing 19-21 g were used in experiments of acute lethal infection. Mice were fully immunocompetent. Infection was induced by inoculating intraperitoneally in mice a bacterial suspension of P. aeruginosa ATCC 27853. The bacterial challenges (8.6 log10 CFU/mouse) were given suspended in 0.1 mL sterile saline. Treatments were administered once 1 hour after challenge via IV injection (Tobramycin was administered via IP injection immediately after challenge) (Table 13). Mortality was tracked out to 2 days post challenge. Animals that remained surviving at the end of the study were humanely euthanized.

[14] = Odilomycin A 7.5 mg/kg IV at 1 hr
[15] = Odilomycin A 15 mg/kg IV at 1 hr

In the case of `N=C(N)NCC/C=C(\NC(=O)C(CCC(O)CN)NC(=O)C(Cc1cnc[nH]1)NC(=O)C1CCCN1C(=O)C(CCCN)NC(=O)CNC(=O)C(NC(=O)C(NC(=O)C(N)CCCCN)C(O)CN)C(O)CN)C(=O)NC(CCC(O)CN)C(=O)NCCCCN` (stereo not drawn) [Odilomycin A, Lys-(3-hydroxy-2,4-diaminobutanoic acid)-(3-hydroxy-2,4-diaminobutanoic acid)-Gly-Ornithine-Pro-His-(5-hydroxylysine)-(2,3-dehydroarginine)-(5-hydroxylysine)-(1,4-diaminobutane)] (H-K[ξDab(3-OH)][ξDab(3-OH)]G[Orn]PH[X1][ΔZArg][X1]-{NH(CH2)4NH2}; configuration not given here), the MIC [1] is reported as under 0.20 µg/mL, the “MICs” value [1] is reported as under 1 µg/mL and the “antibacterial activity” value [2] is reported as “strong”. For the same compound, the MIC [3] was 50.0 µg/mL (≈ 38.6 µM), the MIC [4] was under 0.20 µg/mL and the “MICs” value [4] was under 1 µg/mL. For the same compound, the MIC [5] was 6.25 µg/mL (≈ 4.82 µM), the “MICs” value [5] was under 10 µg/mL and the MIC [6] was 1.56 µg/mL (≈ 1.2 µM). The “MICs” value [7] was under 1 µg/mL, the “Antibacterial activity (MIC)” value ([7]; S. aureus multiresistant clinical isolate 16666) was under 0.19 and the “Antibacterial activity (MIC)” value ([7]; S. aureus multiresistant clinical isolate 20364) was 0.78. For the same compound, the “Antibacterial activity (MIC)” value ([7]; S. aureus multiresistant clinical isolate 20681) was 1.56, the “Antibacterial activity (MIC)” value ([7]; S. aureus multiresistant clinical isolate 21840) was 0.39 and the “Antibacterial activity (MIC)” value ([7]; S. aureus multiresistant clinical isolate 23305) was 0.78. For the same compound, the MBC [8] was 0.78 µg/mL (≈ 0.602 µM), the MBC [9] was 6.25 µg/mL (≈ 4.82 µM) and the “Time to kill 100% of bacteria” value [10] was at most 3 h. For the same compound, the “Time to kill 100% of bacteria” value [11] was at most 2 h, the MIC antibiotic alone [12] was 0.39 µg/mL (≈ 0.301 µM) and the “Animal deaths Day 0” value [13, 14] was 0. For the same compound, the “Animal deaths Day 1” value [13, 14] was 4, the “Animal deaths Day 2” value [13, 14] was 1 and the “Animal deaths Day 0” value [13, 15] was 0. For the same compound, the “Animal deaths Day 2” value [13, 15] was 4.
